{"source": "patent US9695173B2", "about": "“Pharmaceutical compositions for the treatment of capillary arteriopathy” (SINOXA PHARMA GMBH, priority 2006, dated 2017)", "format_in_all_cases": "in vivo, rat", "key": {"male Sprague-Dawley rats [1]": {"system": "male Sprague-Dawley rats", "assay": "Monocrotaline pulmonary hypertension model, treatment from day 14: right ventricular and systemic pressure", "experimental": "(§1) 1 monocrotaline (60 mg/kg; Sigma) was administered to rats on the day of the experiment. For this purpose, the substance was dissolved in 0.5 molar hydrochloric acid and the pH value was then adjusted to 7.4 with 0.5 molar sodium hydroxide solution. The solution was administered to male Sprague-Dawley rats as a single subcutaneous injection in a dose of 60 mg/kg. The same volume of isotonic saline solution was administered to control animals.\n(§2) The dosage specifications in this case relate to the free base of the substances. The substances were used as hydrogenmaleate salt or free base. They were introduced into distilled water in the presence of traces of ascorbic acid and administered by oesophageal tube in the morning and in the evening in a volume of 2 mL. The same quantity of water was administered to control animals.\n(§3) On day 28 of the experiment, 2 hours after the last administration of the substance, the animals were put under general anesthesia using pentobarbital. Then, a tracheostomy was performed on the animals and the animals were respirated at 10 ml/kg and a frequency of […] (SAR830A/P; IITC). Anesthesia was maintained by inhalation of isoflurane.\nThe mean arterial pressure and the right ventricular systolic blood pressure were determined. The systemic arterial pressure was measured using a Millar catheter in the left carotid artery. A millar catheter with a pressure sensor (Millar Instruments, model SPR-534) was inserted through the right jugular vein and pushed up to the right ventricle of the heart and used for measuring the right ventricular pressure (RVSP). The signal was amplified by means of a HSE coupler Series 500 and supplied to a registration unit for evaluation."}, "male Sprague-Dawley rats [2]": {"system": "male Sprague-Dawley rats", "assay": "Monocrotaline pulmonary hypertension model, treatment from day 14: hydroxyproline (collagen) content of the lung", "settings": "monocrotaline 60 mg/kg s.c. day 1; 0.25 mg/kg Lisuride bid or 2.5 mg/kg Terguride bid, days 14-28; right lung day 28; averages ± SEM, N=6", "experimental": "as §1, §2\nAfter the pressure measurements had been performed, the rats were perfused with physiological saline solution. The right lung was removed, deep-frozen and processed for determining the collagen content. To this end, the tissue was first homogenized and analyzed, drawing on the method by Berg (Meths Enzymol. 82, 372 (1982)). […] The color complex created was measured photometrically at 560 nm and the hydroxprolin content of the samples was determined by means of a calibration curve. […]"}, "male Sprague-Dawley rats [3]": {"system": "male Sprague-Dawley rats", "assay": "Monocrotaline pulmonary hypertension model, treatment days 1-28: RVSP and SAP", "settings": "monocrotaline 60 mg/kg s.c. day 1, 0.4 mg/kg Terguride bid (table), measured day 28, averages ± SD, N=4", "experimental": "as §1\n(§4) […] Terguride was introduced into distilled water in the presence of traces of ascorbic acid and administered by oesophageal tube in the morning and in the evening in a volume of 2 mL. The same quantity of physiological saline solution was administered to control animals.\nas §3\nThe mean arterial pressure and the right ventricular systolic blood pressure were determined. The systemic arterial pressure was measured using a Millar catheter in the left carotid artery. […]"}, "male Sprague-Dawley rats [4]": {"system": "male Sprague-Dawley rats", "assay": "Monocrotaline pulmonary hypertension model, treatment days 1-28: right ventricular hypertrophy", "settings": "0.4 mg/kg Terguride bid (table), dry weights, averages ± SD, N=4", "experimental": "as §1, §4\nAfter the pressure measurements had been performed, the rats were perfused with physiological saline solution. The heart was removed and prepared by dissection of the right ventricle, the septum as well as the left ventricle of each heart. The tissue preparations were freeze-dried and the dry weights were then determined by weighing out. For each individual animal, the quotient: weight of the right ventricle/weight of the left ventricle and septum (RV/LV+S) was determined from these animals as a measure for right ventricular hypertrophy."}, "male Sprague-Dawley rats [5]": {"system": "male Sprague-Dawley rats", "assay": "Monocrotaline pulmonary hypertension model, treatment days 1-28: muscularization of arterial capillary vessels of the lung", "settings": "0.4 mg/kg Terguride bid (table), lung arterial capillary vessels 20-50 μm, averages ± SD, N=4", "experimental": "as §1, §4\nThe lungs were removed, fixated in formalin and embedded in paraffin. Paraffin sections were obtained and an immunohistochemical double staining was carried out according to standard protocols. Smooth muscle cells of the vessels were stained with an antibody against actin and the endothelium was stained by means of antibodies against von Willebrand factor. […] The vessels were subdivided into 3 categories: non-muscularized vessels with 20%, partially muscularized vessels with >20%, but <70%, and fully muscularized vessels with >70% lining of the cross-section of the vessel with smooth muscle cells."}, "[6]": {"settings": "monocrotaline 60 mg/kg s.c. day 1, 0.25 mg/kg Lisuride bid or 2.5 mg/kg Terguride bid by oesophageal tube, days 14-28, measured day 28, averages ± SEM, N=6"}}}
{"smiles": "CCN(CC)C(=O)N[C@H]1C=C2c3cccc4[nH]cc(c34)C[C@H]2N(C)C1", "note": "[Lisuride, 3-(9,10-didehydro-6-methylergoline-8alpha-yl)-1,1-diethylurea]", "values": [{"measurement": "RVPsys (systolic pressure in the right ventricle)", "setting": "male Sprague-Dawley rats [1]; [6]", "value": "43 ± 7", "unit": "mmHg"}, {"measurement": "Increase in pressure in the right ventricle (in words)", "setting": "male Sprague-Dawley rats [1]; monocrotaline rats, therapy started 14 days after monocrotaline", "value": "reduces"}, {"measurement": "Hydroxyproline content of the lung", "setting": "male Sprague-Dawley rats [2]", "value": "3.3 ± 0.8", "unit": "ug/g protein"}]}
{"smiles": "CCN(CC)C(=O)N[C@H]1C[C@@H]2c3cccc4[nH]cc(c34)C[C@H]2N(C)C1", "note": "[Terguride, (+)-1,1-diethyl-3-(6-methyl-8α-ergolinyl)-urea]", "values": [{"measurement": "RVPsys (systolic pressure in the right ventricle)", "setting": "male Sprague-Dawley rats [1]; [6]", "value": "39 ± 3", "unit": "mmHg"}, {"measurement": "SAP (systemic arterial pressure)", "setting": "male Sprague-Dawley rats [1]; [6]", "value": "111 ± 7", "unit": "mmHg"}, {"measurement": "Hydroxyproline content of the lung", "setting": "male Sprague-Dawley rats [2]", "value": "2.7 ± 1.2", "unit": "ug/g protein"}, {"measurement": "RVSP (right ventricular systolic pressure)", "setting": "male Sprague-Dawley rats [3]", "value": "36.4 ± 3.6", "unit": "mmHg"}, {"measurement": "SAP (systemic arterial pressure)", "setting": "male Sprague-Dawley rats [3]", "value": "97.5 ± 15.2", "unit": "mmHg"}, {"measurement": "RV/LV + S (weight of right ventricle vs. weight of left ventricle and septum)", "setting": "male Sprague-Dawley rats [4]", "value": "0.33 ± 0.08"}, {"measurement": "Proportion of fully muscularized vessel", "setting": "male Sprague-Dawley rats [5]", "value": "21.3 ± 12.6", "unit": "%"}, {"measurement": "Proportion of non-muscularized vessel", "setting": "male Sprague-Dawley rats [5]", "value": "1.9 ± 1.6", "unit": "%"}, {"measurement": "Proportion of partially muscularized vessel", "setting": "male Sprague-Dawley rats [5]", "value": "57.8 ± 14.6", "unit": "%"}]}
